What was measured:
[1] = target: 3 beta-hydroxysteroid dehydrogenase/Delta 5-->4-isomerase type 1 (Homo sapiens, UniProt P14060); assay: Binding affinity on 3 beta-hydroxysteroid dehydrogenase
[2] = target: T1, 3-oxo-5-alpha-steroid 4-dehydrogenase 1 (Homo sapiens, UniProt P18405); assay: Binding affinity for human 5 alpha reductase 1 isozyme
T1 sequence (P18405 whole entry): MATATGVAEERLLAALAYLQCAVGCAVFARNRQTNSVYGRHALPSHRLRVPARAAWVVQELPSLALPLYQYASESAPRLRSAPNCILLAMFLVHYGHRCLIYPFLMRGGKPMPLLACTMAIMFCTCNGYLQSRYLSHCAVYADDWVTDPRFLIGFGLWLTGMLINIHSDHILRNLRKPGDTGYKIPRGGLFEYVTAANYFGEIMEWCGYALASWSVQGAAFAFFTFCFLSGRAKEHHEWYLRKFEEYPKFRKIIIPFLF

[3] = target: T2, Alpha-1A adrenergic receptor (Homo sapiens, UniProt P35348); assay: Binding affinity was tested on human Alpha-1A adrenergic receptor
T2 sequence (P35348 whole entry): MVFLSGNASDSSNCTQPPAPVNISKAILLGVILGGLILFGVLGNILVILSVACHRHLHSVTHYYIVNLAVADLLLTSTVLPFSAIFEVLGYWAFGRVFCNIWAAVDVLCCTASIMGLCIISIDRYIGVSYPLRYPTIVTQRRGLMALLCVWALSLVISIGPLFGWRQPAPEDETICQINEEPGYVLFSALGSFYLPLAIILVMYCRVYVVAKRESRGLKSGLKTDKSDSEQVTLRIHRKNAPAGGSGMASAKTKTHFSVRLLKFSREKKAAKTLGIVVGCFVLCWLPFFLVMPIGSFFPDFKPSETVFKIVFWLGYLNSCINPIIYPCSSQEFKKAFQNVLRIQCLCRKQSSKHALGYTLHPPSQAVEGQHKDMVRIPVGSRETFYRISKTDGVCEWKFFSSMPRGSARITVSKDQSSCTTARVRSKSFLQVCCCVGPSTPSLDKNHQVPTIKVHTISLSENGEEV

Canis familiaris [4] = assay: 50% reduction in agonist induced pressor response in anesthetized dog; type: functional; settings: Canis lupus familiaris; read-out: ID50 (the source's name)
[5] = target: T3, Alpha-1B adrenergic receptor (Homo sapiens, UniProt P35368); assay: Binding affinity was tested on human Alpha-1B adrenergic receptor
T3 sequence (P35368 whole entry): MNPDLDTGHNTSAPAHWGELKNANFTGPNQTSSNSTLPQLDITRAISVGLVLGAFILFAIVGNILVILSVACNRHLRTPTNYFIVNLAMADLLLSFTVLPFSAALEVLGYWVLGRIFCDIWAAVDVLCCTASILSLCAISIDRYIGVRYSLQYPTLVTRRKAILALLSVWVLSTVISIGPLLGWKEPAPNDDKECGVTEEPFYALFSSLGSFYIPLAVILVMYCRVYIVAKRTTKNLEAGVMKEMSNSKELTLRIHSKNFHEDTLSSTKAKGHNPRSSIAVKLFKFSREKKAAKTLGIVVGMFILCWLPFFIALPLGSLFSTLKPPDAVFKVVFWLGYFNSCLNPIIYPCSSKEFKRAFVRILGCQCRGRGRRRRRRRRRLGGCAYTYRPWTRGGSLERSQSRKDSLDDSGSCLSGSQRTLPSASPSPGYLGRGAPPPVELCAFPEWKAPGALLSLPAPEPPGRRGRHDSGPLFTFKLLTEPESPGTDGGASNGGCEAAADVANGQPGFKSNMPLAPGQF

[6] = target: T4, Alpha-1D adrenergic receptor (Homo sapiens, UniProt P25100); assay: Binding affinity was tested on human Alpha-1D adrenergic receptor
T4 sequence (P25100 whole entry): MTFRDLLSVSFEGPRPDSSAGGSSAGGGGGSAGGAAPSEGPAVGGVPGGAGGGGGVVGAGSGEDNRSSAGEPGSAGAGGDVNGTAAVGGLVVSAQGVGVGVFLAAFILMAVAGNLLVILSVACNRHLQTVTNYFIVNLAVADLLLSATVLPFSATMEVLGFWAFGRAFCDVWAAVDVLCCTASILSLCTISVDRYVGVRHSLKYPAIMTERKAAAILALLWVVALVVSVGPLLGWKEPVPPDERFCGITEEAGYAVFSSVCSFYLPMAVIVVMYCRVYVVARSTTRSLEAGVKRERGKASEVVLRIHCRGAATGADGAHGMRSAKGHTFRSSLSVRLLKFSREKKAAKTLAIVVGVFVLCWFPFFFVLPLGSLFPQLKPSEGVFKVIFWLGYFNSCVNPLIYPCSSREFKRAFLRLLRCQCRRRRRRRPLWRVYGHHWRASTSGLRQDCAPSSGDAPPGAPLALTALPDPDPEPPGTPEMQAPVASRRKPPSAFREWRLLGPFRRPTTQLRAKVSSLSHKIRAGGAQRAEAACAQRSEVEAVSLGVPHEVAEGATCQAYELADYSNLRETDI

[7] = Ratio of intraurethral pressure to that of pressor response in dog.; type: functional
Canis familiaris [8] = assay: 50% reduction in intraurethral pressure (IUP) in response to hypogastric nerve stimulation or agonist (phenylephrine or norepinephrine) administration in anesthetized dog; type: functional; settings: Canis lupus familiaris; read-out: ID50 (the source's name)
[9] = Dose (iv) for 20% reduction of mean blood pressure in rat (ID20) with the dose for 50% inhibition of norepinephrine-mediated contraction of proximal urethra (ID50) in cat; type: functional
[10] = target: T5, Adrenergic receptor alpha-1 (Homo sapiens, UniProt P35348+P25100+P35368); assay: pA2 for Alpha-1 adrenergic receptor from human prostate.; type: tissue-based, Prostate gland
T5 sequence (P35348 whole entry): T2 sequence (P35348 whole entry)
T5 sequence (P25100 whole entry): T4 sequence (P25100 whole entry)
T5 sequence (P35368 whole entry): T3 sequence (P35368 whole entry)

[11] = target: T6, Alpha-1A adrenergic receptor (Rattus norvegicus, UniProt P43140); assay: Binding affinity was tested on CEC-pretreated rat hippocampus Alpha-1A adrenergic receptor; type: tissue-based
T6 sequence (P43140 whole entry): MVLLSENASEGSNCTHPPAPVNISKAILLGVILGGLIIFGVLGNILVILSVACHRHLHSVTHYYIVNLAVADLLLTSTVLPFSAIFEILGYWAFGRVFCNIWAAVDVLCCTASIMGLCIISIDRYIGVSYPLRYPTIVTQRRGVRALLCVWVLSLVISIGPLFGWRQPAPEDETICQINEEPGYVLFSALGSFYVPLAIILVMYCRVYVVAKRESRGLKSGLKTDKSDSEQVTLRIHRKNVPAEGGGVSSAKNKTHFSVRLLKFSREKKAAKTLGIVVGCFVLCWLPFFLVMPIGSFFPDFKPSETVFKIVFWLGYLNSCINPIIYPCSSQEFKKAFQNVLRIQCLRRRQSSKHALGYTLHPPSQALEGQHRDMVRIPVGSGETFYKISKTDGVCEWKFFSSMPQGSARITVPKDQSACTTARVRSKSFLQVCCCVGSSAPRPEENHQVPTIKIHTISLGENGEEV

Canis familiaris [12] = assay: (§1) In vivo dose (iv) for 50% inhibition of norepinephrine-mediated contraction of proximal urethra (ID50) with the dose (iv) for 25% reduction in systolic blood pressure (ED25) in anesthetized dogs; type: functional, Canis lupus familiaris, Artery
[13] = target: T7, Alpha-1B adrenergic receptor (Rattus norvegicus, UniProt P15823); assay: Binding affinity was tested on CEC-pretreated rat liver Alpha-1B adrenergic receptor
T7 sequence (P15823 whole entry): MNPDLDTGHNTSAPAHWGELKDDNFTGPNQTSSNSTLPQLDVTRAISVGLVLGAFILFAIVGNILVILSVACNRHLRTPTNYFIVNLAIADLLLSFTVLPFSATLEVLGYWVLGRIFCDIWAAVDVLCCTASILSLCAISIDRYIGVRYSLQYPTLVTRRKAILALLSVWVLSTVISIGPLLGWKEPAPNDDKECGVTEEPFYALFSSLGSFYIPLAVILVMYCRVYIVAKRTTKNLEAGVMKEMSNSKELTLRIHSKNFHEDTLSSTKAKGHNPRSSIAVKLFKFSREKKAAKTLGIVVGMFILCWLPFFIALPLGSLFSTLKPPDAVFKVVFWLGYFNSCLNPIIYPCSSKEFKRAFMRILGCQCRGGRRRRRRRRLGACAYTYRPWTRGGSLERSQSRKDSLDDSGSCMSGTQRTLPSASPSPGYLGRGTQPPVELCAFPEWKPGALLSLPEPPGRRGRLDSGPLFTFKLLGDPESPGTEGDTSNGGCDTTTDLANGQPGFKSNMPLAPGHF

[14] = target: T8, 3-oxo-5-alpha-steroid 4-dehydrogenase 2 (Homo sapiens, UniProt P31213); assay: Binding affinity for human 5-alpha reductase 2 isozyme
T8 sequence (P31213 whole entry): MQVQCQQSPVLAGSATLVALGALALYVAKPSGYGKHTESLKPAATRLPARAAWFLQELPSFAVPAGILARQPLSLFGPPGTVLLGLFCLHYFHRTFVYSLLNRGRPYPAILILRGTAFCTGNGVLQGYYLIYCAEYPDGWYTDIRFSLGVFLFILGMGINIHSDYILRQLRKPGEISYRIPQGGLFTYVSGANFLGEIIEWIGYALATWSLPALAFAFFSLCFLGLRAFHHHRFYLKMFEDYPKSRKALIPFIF

[15] = as §1; type: functional
[16] = Binding affinity on human prostatic 5-alpha reductase isozyme
[17] = target: T9, Steroid 5-alpha-reductase (Rattus norvegicus, UniProt P24008+P31214); assay: Binding affinity on rat 5-alpha reductase isozyme; type: protein assay
T9 sequence (P24008 whole entry): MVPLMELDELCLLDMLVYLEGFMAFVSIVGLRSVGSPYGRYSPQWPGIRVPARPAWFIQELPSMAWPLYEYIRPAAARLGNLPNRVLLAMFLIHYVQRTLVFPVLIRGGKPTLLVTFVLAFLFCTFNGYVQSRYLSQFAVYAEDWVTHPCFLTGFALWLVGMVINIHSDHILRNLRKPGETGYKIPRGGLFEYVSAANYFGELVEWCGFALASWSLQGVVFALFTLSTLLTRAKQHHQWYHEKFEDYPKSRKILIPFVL
T9 sequence (P31214 whole entry): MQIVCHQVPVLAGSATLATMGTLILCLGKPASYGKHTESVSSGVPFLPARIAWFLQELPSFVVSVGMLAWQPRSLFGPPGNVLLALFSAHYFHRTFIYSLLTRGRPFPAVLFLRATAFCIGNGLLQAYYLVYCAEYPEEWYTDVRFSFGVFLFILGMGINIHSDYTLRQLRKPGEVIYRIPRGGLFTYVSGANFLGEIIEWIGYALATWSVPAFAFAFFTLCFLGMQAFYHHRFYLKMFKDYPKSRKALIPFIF

3 beta-hydroxysteroid dehydrogenase/Delta 5-->4-isomerase type 1, sequence (P14060 whole entry): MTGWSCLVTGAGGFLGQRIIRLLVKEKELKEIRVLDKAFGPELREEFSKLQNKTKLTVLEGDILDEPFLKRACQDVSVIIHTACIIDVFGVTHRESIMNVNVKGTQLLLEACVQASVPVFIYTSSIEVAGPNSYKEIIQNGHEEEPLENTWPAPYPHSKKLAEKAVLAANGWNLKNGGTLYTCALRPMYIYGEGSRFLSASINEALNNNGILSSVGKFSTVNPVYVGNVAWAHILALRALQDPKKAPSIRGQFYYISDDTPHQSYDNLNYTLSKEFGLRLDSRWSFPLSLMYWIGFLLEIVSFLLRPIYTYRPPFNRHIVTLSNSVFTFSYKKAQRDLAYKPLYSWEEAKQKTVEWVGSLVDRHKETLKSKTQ

Ki [3] | Ki [5] | Ki [6] | SMILES | ED50 (Canis familiaris [4]) | Ratio [7] | ED50 (Canis familiaris [8]) | also measured
– | – | – | CC(C)(C)CC(C)(C)NC(=O)[C@H]1CCC2C3CNC4=CC(=O)CC[C@]4(C)C3CC[C@@]21C (some centres undefined) | – | – | – | IC50 [1]: 150 nM
– | – | – | CC(C)(C)NC(=O)[C@H]1CC[C@H]2[C@@H]3CC[C@H]4NC(=O)C=C[C@]4(C)[C@H]3CC[C@]12C [FINASTERIDE] | – | – | – | Ki [2]: 150 nM
0.2 nM | 15.8 nM | 25.1 nM | COc1ccc(CCN2CCC(c3nc(COCC(F)(F)F)c(-c4ccc(F)cc4)o3)CC2)cc1S(N)(=O)=O | 7.25 mg/kg | 550 | 0.013 mg/kg | –
2.51 nM | 12.6 nM | 2.51 nM | COc1ccc(Cl)cc1N1CCN(CCCNc2nccc(C(N)=O)n2)CC1 | 0.021 mg/kg | 5 | 0.005 mg/kg | Ratio [9]: 46; pA2 [10]: 8.6
1 nM | 79.4 nM | 100 nM | Cc1c[nH]c(=O)n(CCCN2CCN(c3ccc(F)cc3OCC(F)(F)F)CC2)c1=O | 0.38 mg/kg | 76 | 0.005 mg/kg | pA2 [10]: 8.8
– | – | – | COc1ccccc1N1CCN(CCCC(=O)c2cccc3c(=O)c(C)c(-c4ccccc4)oc23)CC1 | – | – | – | IC50 [11]: 1.5 nM; Ratio (Canis familiaris [12]): 39; IC50 [13]: 24 nM
– | – | – | C[C@]12CCC(=O)C(Cl)=C1NCC1C2CC[C@@]2(C)C1CC[C@@H]2C(=O)Nc1cc(C(F)(F)F)ccc1C(F)(F)F (some centres undefined) | – | – | – | IC50 [14]: < 0.1 nM; Ki [2]: 0.2 nM
– | – | – | CC(C)(C)CCNC(=O)[C@H]1CCC2C3CNC4=CC(=O)CC[C@]4(C)C3CC[C@@]21C (some centres undefined) | – | – | – | IC50 [1]: 8.3 nM
– | – | – | COc1ccccc1N1CCN(CCCCOc2cccc3c(=O)c(C)c(-c4ccccc4)oc23)CC1 | – | – | – | IC50 [11]: 10 nM; Ratio [15]: 13; IC50 [13]: 39 nM
– | – | – | CC(C)N(C(=O)c1ccc(CCC2CCC(=O)N(C)C2)cc1)C(C)C (centres undefined) | – | – | – | Ki [16]: > 20000 nM; Ki [17]: > 20000 nM

— ChEMBL document CHEMBL1129998, “Pharmacological options in the treatment of benign prostatic hyperplasia” (J Med Chem, 1997)
